Assay results: patent publication US8628961B2, “Small molecule antagonists of phosphatidylinositol-3,4,5-triphosphate (PIP3) and uses thereof” (Tufts University, priority 2010, dated 2014)

How the values were obtained:
PI3K-PDK1-Akt signaling = PI3K-PDK1-Akt signaling in growth factor-stimulated SUM159 cells; type: cell-based, human
Rac1 = Rac1 activation pull-down (GST-Pak1-PBD), western blot; type: cell-based, human; settings: SUM159, PDGF
Protocol: Rho/Rac family, especially Rac1, plays a critical role in actin polymerization, membrane ruffling/lamellipodia formation, and cell motility (Ridley A J et al. (1992) Cell 70:401-410) downstream of the GEFs, e.g., VAV family, and upstream of the WAVE family. The effect of PITs on Rac1 activation was therefore analyzed. SUM159 cells were seeded on 10 cm^2 plates and serum starved overnight, treated with different PIT compounds at a variety of concentrations for 2 hr, and then stimulated with 100 ng/ml PDGF for 15 min. Next, cells were rinsed once with PBS, and 1 ml lysis buffer (25 mM Tris-HCl, pH 7.5, 150 mM NaCl, 5 mM MgCl2, 1% NP-40, 1 mM DTT, 5% glycerol, 1 μg/ml aprotinin, 1 μg/ml leupeptin and 1 mM PMSF) was added per plate. The cells were scraped and transferred to a microcentrifuge tube, vortexed briefly, and incubated on ice for 5 min, followed by a centrifugation at 16,000×g at 4° C. for 15 min. The supernatant was collected. A sample of the lysate was used to ensure equal protein concentration in the samples. Next, 700 μl lysate, 20 μl glutathione-sepharose beads, and 20 μg GST-human Pak1-PBD were mixed together, and the reaction mixture was incubated at 4° C. for 1 hr with gentle rocking. The beads were then washed three times with lysis buffer, and proteins were eluted by boiling beads in 50 μl of the 2×SDS sample buffer at 95-100° C. for 5 min. […]

SUM159 cells = assay: Actin polymerization and ruffling/lamellipodia formation after PDGF; type: cell-based, human; settings: SUM159, concentration-dependent
Protocol: In one set of experiments, the ability of PITs to inhibit actin polymerization and ruffling/lamellipodia formation was examined in SUM159 cells. Cells were serum starved and treated with PITs (25, 50 100 μM) or PIT-1 is (100 μM) for 8 hr, followed by PDGF (100 ng/ml) stimulation for 15 min. Cells were fixed and stained with TRITC-phalloidin to visualize actin fibers, followed by fluorescent microscopy analysis. The number of cells with ruffles/lamellipodia was counted in five random fields.

[1] = tested on: SV40-transformed mouse adult lung fibroblasts; assay: Viability of Akt1-expressing versus Akt1-3 triple knockout fibroblasts; type: cell-based
Excerpt: Shaughnessy J D (2008) Nature 454:172-3; Weinstein I G (2002) Science 297:63-4. Therefore, the possibility that PIT-1 may cause preferential cell death in the cells containing elevated PIP3 levels was examined. […] Li D M et al. (1998) Proc Natl Acad Sci USA 95:15406-11. […] Neshat M S et al. (2001) Proc Natl Acad Sci USA 98:10314-9.

[2] = target: PH domain of Akt (His6-Akt123) (Homo sapiens (Human), UniProt P31749); assay: NMR 2D HSQC binding analysis
Chain of PH domain of Akt (His6-Akt123) (P31749 1-123): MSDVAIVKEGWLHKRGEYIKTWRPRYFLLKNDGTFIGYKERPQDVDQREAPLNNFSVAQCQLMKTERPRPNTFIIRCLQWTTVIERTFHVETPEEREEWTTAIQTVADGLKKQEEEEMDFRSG
Protocol: To further characterize the mode of action of PIT-1, NMR-based analyses of PIT-1 binding to the PH domain of Akt were performed. […] PIT-1 was further titrated to identify residues primarily affected by the small molecule binding. Using published Akt2 HSQC peak assignments (Auguin D et al. (2004) J Biomol NMR 28:137-55), it was observed that the residues Trp22 (W22), Tyr26 (Y26), and Asn54 (N54), located in the PIP3 binding pocket of the Akt PH domain, are primarily affected by PIT-1. Changes in other crosspeak signals were observed only at the 2× access of PIT-1.

[3] = target: R86A mutant of the PH domain (Homo sapiens (Human), UniProt P31749, R86A); assay: NMR HSQC binding analysis, mutant PH domain
Chain of R86A mutant of the PH domain (P31749 1-123 R86A): as the sequence (P31749 1-123) above, with R86A counted along it

U87MG cells [4] = assay: Long-term colony formation; type: cell-based, human
U87MG cells [5] = assay: Cell death with pan-caspase inhibitor zVAD.fmk, Sytox assay; type: cell-based, human; settings: 100 μM zVAD.fmk
Protocol: FIG. 11 is a bar graph depicting that cell death triggered by PIT-1 alone or in combination with TRAIL is inhibited by pan-caspase inhibitor zVAD.fmk. U87MG cells were incubated with or without 100 μM zVAD.fmk together with PIT-1 (25, 50, 100 μM) in the presence or absence of 10 ng/ml TRAIL for 24 hr, and analyzed by Sytox cell death assay.
Since PI3K/PIP3/Akt signaling plays a critical role in the inhibition of apoptosis (Datta S R et al. (1999) Genes Dev 13:2905-27), the possibility that PITs induce apoptosis was examined. […] Proapoptotic Bcl-2 family members Bax and Bak are important mediators of apoptosis. Wei M C et al. (2001) Science 292:727-30. […] Non-apoptotic mechanisms of cell death may also play some additional, albeit less important, role in PIT-induced killing, as some cell death was still observed in Bax/Bak-deficient cells and in the presence of zVAD.fmk.

[6] = tested on: AMPK and ACC phosphorylation, LC3-II; assay: Metabolic stress and autophagy markers; type: cell-based, human
Excerpt: Changes in cell metabolism have emerged in recent years as an important component of PI3K/PIP3/Akt signaling, contributing to the regulation of cell viability and transformation by the PI3K/Akt pathway. Datta S R et al. (1999) Genes Dev 13:2905-27; Elstrom R L et al. (2004) Cancer Res 64:3892-9. Therefore, the possibility that PIT-1 may cause dysregulation of energy homeostasis and induction of the metabolic stress in cancer cells, which may contribute to the PIT-induced cell death, was investigated. […] Hardie D G (2007) Nat Rev Mol Cell Biol 8:774-85. […] Mathew R et al. (2007) Nat Rev Cancer 7:961-7. […] It is also consistent with the established role of Akt as an inhibitor of autophagy. […] Takeuchi H et al. (2005) Cancer Res 65:3336-46.

[7] = Cell death under glucose/glutamine deprivation; type: cell-based

SMILES: O=C(NC(=S)Nc1cc([N+](=O)[O-])cc(Cl)c1O)c1ccccc1 [PIT-1]
- PI3K-PDK1-Akt signaling in SUM159 cells (PI3K-PDK1-Akt signaling): significantly suppressed PI3K-PDK1-Akt signaling
- activation of Rac1 caused by growth factor stimulation (Rac1): efficiently suppressed the activation of Rac1
- PDGF-induced membrane ruffling (SUM159 cells): efficiently inhibited
- loss of viability in Akt1-expressing versus Akt1-3 triple knockout fibroblasts [1]: more pronounced (P<0.01)
- changes in 2D HSQC 1H-15N correlation spectrum of His6-Akt123 [2]: induces significant changes
- effect on R86A mutant PH domain (HSQC) [3]: no effect
- long-term colony formation by U87MG cells (U87MG cells [4]): suppressed long-term colony formation
- cell death, alone or with TRAIL, in presence of zVAD.fmk (U87MG cells [5]): inhibited by a pan-caspase inhibitor zVAD.fmk
- phosphorylation of ACC [6]: Increased phosphorylation
- phosphorylation of AMPK [6]: significant increase in the phosphorylation
- expression of autophagic marker LC3-II ([6]; U87MG cells): prominently increased the expression
- cell death in combination with glucose/glutamine deprivation [7]: dramatic induction of cell death
